Here are results for seven compounds from US20240228501A1, “IMIDAZOLE-CONTAINING CONDENSED RING DERIVATIVE, PREPARATION METHOD THEREFOR, AND APPLICATION THEREOF IN MEDICINE” (CHANGCHUN GENESCIENCE PHARMACEUTICAL CO., LTD., priority 2021, published 2024).

Where two headings read alike, the source gives them in different places.

The target of data set [1] is T1, human NK-3 receptor (Homo sapiens, UniProt P29371).
T1 construct: expressed in transfected cells; host or cells: HEK293
T1 sequence (P29371 1-465): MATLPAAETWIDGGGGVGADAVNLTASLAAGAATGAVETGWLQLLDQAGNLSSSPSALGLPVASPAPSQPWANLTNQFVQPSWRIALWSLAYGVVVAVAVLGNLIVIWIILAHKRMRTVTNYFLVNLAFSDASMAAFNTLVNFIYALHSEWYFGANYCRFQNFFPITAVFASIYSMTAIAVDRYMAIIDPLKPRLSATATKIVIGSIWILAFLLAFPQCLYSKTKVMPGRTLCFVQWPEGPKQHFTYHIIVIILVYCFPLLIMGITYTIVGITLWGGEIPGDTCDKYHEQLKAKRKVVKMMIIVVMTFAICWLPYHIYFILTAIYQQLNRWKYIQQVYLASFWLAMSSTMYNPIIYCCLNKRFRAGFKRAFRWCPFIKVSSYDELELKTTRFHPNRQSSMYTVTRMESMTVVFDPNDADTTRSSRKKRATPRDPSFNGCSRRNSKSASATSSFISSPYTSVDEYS
In words: Antagonistic activity on human NK-3 receptor in human NK-3R/HEK293 stably transfected cells (Fluo-4, FLIPR, Neurokinin B as agonist). The following applies: human NK-3R/HEK293 cells. Type of data set: cell-based. Here is the method:
Test Example 1: Determination of Activity of Compounds of the Present Invention on Human NK-3 Receptor
This method is used to determine antagonistic effects of the compounds of the present invention on the activity of human NK-3 receptor proteins expressed in cell lines stably transfected with human NK-3R/HEK293.
2.1 The cell lines stably transfected with human NK-3R/HEK293 were inoculated in a 384-well cell culture plate at a inoculation density of 12,000 cells/well/25 μL, and cultured at 37° C. and 5% CO2 overnight;
2.2 20× Component A was frozen and thawed to room temperature, diluted 2× with Assay Buffer to working concentration, and kept at room temperature for later use;
2.3 The cell culture plate was equilibrated at room temperature for 10 min, the culture medium was removed, and 20 μL of Assay Buffer and 20 μL of 2× Component A […] were added, followed by centrifugation at 200 g at room temperature for 3-5 sec, and incubation at 37° C. for 2 h;
2.4 The compound was diluted 3 times with DMSO in 384 PP_DMSO plate, and then 240 nl/well of the compound was transferred into a working plate with Echo 550, centrifugated at 200 g at room temperature for 1 min; 40 μl of Assay Buffer was added into the working plate, centrifugated at 200 g at room temperature for 1 min, and then fully mixed in an oscillator at 2500 rpm for 20 min, and then centrifugated at 200 g at room temperature for 1 min for later use;
2.5 2.5 nM Neurokinin B TFA (6×) was prepared from Assay Buffer, 50 uL of which was transferred onto 3657 plate for later use;
2.6 The cell culture plate was taken out and left to stand at room temperature for 10 min, then […] the compound diluted in step 2.4 was added into corresponding wells, and the cell culture plate was left to stand at 25° C. for 30 min; and
2.7 10 μL of the compound diluted in step 2.5 was added into the corresponding experimental wells with FLIPR Tetra, and data was collected.
The antagonistic activity of the compounds of the present invention on the human NK-3 receptor was determined through the above experiments, to obtain inhibition curves of the compounds of the present invention and determine concentrations (IC50) of the corresponding compounds that inhibit 50% of the reference agonist.

Data set [2] can be described thus: Pharmacokinetic test in rats (gavage 3 mg/kg, intravenous 1 mg/kg). The following applies: rat, plasma, SD rats; for bioavailability: gavage 3 mg/kg vs intravenous 1 mg/kg, read-out: Oral bioavailability F (%); for Cmax: read-out: Blood concentration Cmax; for AUC: read-out: Curve area AUC; for half-life: read-out: Half life T1/2 (converted). It counts as in vivo. Here is the method: Test Example 2: Pharmacokinetic Test of Compounds of the present invention in Rats
To study in vivo pharmacokinetic behaviors of the compounds of the present invention in rats, and evaluate pharmacokinetic characteristics thereof.
An appropriate amount of sample was weighed, and ultrasonically prepared into a 0.3 mg/mL suspension for the gavage administration group; and was prepared into a 0.2 mg/mL suspension for the intravenous administration group as per a formula of 5% DMSO+10% Solutol+85% (20% SBE-β-CD).
SD rats were fasted overnight, and then administered by gavage at a dosage of 3 mg/kg and by intravenous injection at a dosage of 1 mg/kg, respectively.
0.1 mL of blood was collected before administration and at 5 min, 15 min, 30 min, 1 h, 2 h, 4 h, 8 h, and 24 h after administration, transferred into heparinized tubes, and centrifuged at 3500 rpm for 10 min to separate the plasma, which was stored at −20° C. 4 h after administration, the animals were resumed for feeding/free access to water.
Contents of the test compounds in plasma of the rats after gavage administration were determined by LC/MS/MS.

For data set [3], the system named is MDR1. Nature of the data set: In vitro brain model test: MDR1-MDCKII bidirectional permeability. Type of data set: in vitro ADME. The following applies: dog; for Papp A→B at 2.5 h, 2 μM / Papp B→A at 2.5 h, 2 μM: MDCK-MDR1, pH 7.4, 2 μM, pH7.4; for efflux ratio at 2.5 h, 2 μM: MDCK-MDR1, pH 7.4, B to A / A to B, read-out: Efflux rate. Here is the method: The test product was diluted from dimethyl sulfoxide stock solution to a concentration of 2 μM (dimethyl sulfoxide <1%) with a transfer buffer (HBSS containing 10 mM Hepes, pH7.4); and was applied to apical or basolateral cavities of the cell monolayer. Penetration of the test compound from the direction A to the direction B or from the direction B to the direction A was determined in duplicate. Digoxin was detected at 10 μM in the direction of A-B, or detected in the direction of B-A, while Nadolol and Metoprolol were detected at 2 μM in the direction of A-B in duplicate. The plate was cultivated in a CO2 incubator at 37±1° C. for 2.5 h with 5% CO2 at a saturated humidity without shaking. Further, the efflux rate of each compound was also determined. According to the peak area ratio of analyte/IS, the test product and the control product were quantitatively analyzed by LC-MS/MS.
After the transfer test, the monolayer integrity of cells was determined by a lucifer yellow exclusion assay. Buffer was removed from apical and basolateral cavities, and then 75 μL of 100 μM lucifer yellow and 250 μL of transfer buffer were added into the apical and basolateral cavities, respectively. The culture dish was cultivated at 37° C., 5% CO2, and saturated humidity for 30 min without shaking. After incubation for 30 min, 20 μL of lucifer yellow sample was extracted from the top, and then 60 μL of the transfer buffer was added. Then, 80 μL of lucifer yellow sample was extracted basolaterally. Relative Fluorescence Units (RFU) of lucifer yellow were measured at 425/528 nm (excitation/emission) with an Envision plate reader.

In general, IC50 refers to the concentration needed to halve the response being measured. A lower IC50 goes with higher potency. A word on the bioavailability: it is the share of a dose that reaches the circulation, judged against a reference dose that is usually intravenous. Usually AUC stands for concentration integrated over time. In turn, `CC(=O)Nc1nc(-c2nc(C)ns2)n2c1[C@@H](C)N(C(=O)c1ccc(F)cc1)CC2` [Compound 034, (R)—N-(7-(4-fluorobenzoyl)-8-methyl-3-(3-methyl-1,2,4-thiadiazol-5-yl)-5,6,7,8-tetrahydroimidazo[1,5-a]pyrazin-1-yl)acetamide] registered an IC50 in data set [1] of 30.4 nM. Besides, in data set [2] (po), the bioavailability was determined as 83.1%. For the same compound, in data set [2] (po, gavage 3 mg/kg), the Cmax stood at 1290 ± 133 ng/mL, the AUC turned out to be 5580 ± 241 ng·h/mL and the half-life was 3.92 ± 0.662 h. Besides, in data set [2] (intravenous injection 1 mg/kg), the AUC stood at 2240 ± 418 ng·h/mL and the half-life was 2.95 ± 0.855 h.
As usually defined, the Papp A→B is how fast a substance crosses the layer from the apical side. A lower Papp A→B goes with poor permeation. For orientation: Papp B→A means the apparent permeability from the basolateral to the apical side of a cell layer. In the case of `Cc1nsc(-c2nc(-c3ccnc(F)c3)c3n2CCN(C(=O)c2ccc(F)cc2)[C@@H]3C)n1` [Compound 044, (R)-(4-fluorophenyl)(1-(2-fluoropyridin-4-yl)-8-methyl-3-(3-methyl-1,2,4-thiadiazol-5-yl)-5,6-dihydroimidazo[1,5-a]pyrazin-7 (8H)-yl)methanone], the IC50 in data set [1] was 17 nM. Further, in data set [3], the Papp A→B at 2.5 h, 2 μM was found to be 24 ×10⁻⁶ cm/s; the Papp B→A at 2.5 h, 2 μM stood at 15.9 ×10⁻⁶ cm/s; the efflux ratio at 2.5 h, 2 μM worked out at 0.66.
`Cc1nsc(-c2nc(N3CCCC3=O)c3n2CCN(C(=O)c2ccc(F)cc2)[C@@H]3C)n1` [Compound 068, (R)-1-(7-(4-fluorobenzoyl)-8-methyl-3-(3-methyl-1,2,4-thiadiazol-5-yl)-5,6,7,8-tetrahydroimidazo[1,5-a]pyrazin-1-yl)pyrrolidin-2-one] registered an IC50 in data set [1] of 8.36 nM. Moreover, in data set [2] (po), the bioavailability came to 73.4%. Also, in data set [2] (po, gavage 3 mg/kg), the Cmax turned out to be 1030 ± 101 ng/mL, the AUC was found to be 2890 ± 794 ng·h/mL and the half-life is 3.57 ± 1.39 h. Also, in data set [2] (intravenous injection 1 mg/kg), the area under the curve (AUC) was found to be 1280 ± 264 ng·h/mL and the half-life is 1.02 ± 0.16 h.
In data set [1], `Cc1nsc(-c2nc(-c3ccnc(F)c3F)c3n2CCN(C(=O)c2ccc(F)cc2)[C@@H]3C)n1` [Compound 074, (R)-(1-(2,3-difluoropyridin-4-yl)-8-methyl-3-(3-methyl-1,2,4-thiadiazol-5-yl)-5,6-dihydroimidazo[1,5-a]pyrazin-7 (8H)-yl)(4-fluorophenyl)methanone] displayed an IC50 of 13.6 nM. For the same compound, in data set [3], the Papp A→B at 2.5 h, 2 μM is 22.9 ×10⁻⁶ cm/s; the Papp B→A at 2.5 h, 2 μM turned out to be 16.1 ×10⁻⁶ cm/s; the efflux ratio at 2.5 h, 2 μM is 0.7.
Turning to `Cc1nsc(-c2nc(N3Cc4ccccc4C3=O)c3n2CCN(C(=O)c2ccc(F)cc2)[C@@H]3C)n1` [Compound 085, (R)-2-(7-(4-fluorobenzoyl)-8-methyl-3-(3-methyl-1,2,4-thiadiazol-5-yl)-5,6,7,8-tetrahydroimidazo[1,5-a]pyrazin-1-yl)isoindolin-1-one], in data set [1], the IC50 is 12.8 nM. In data set [3], the Papp A→B at 2.5 h, 2 μM came out at 28 ×10⁻⁶ cm/s; the apparent permeability from basolateral to apical (Papp B→A) at 2.5 h, 2 μM was found to be 18.7 ×10⁻⁶ cm/s; the efflux ratio at 2.5 h, 2 μM came out at 0.67.
Compound `Cc1nsc(-c2nc(N3C[C@H](F)CC3=O)c3n2CCN(C(=O)c2ccc(F)cc2)[C@@H]3C)n1` [Compound 107, (R)-4-fluoro-1-[(R)-7-(4-fluorobenzoyl)-8-methyl-3-(3-methyl-1,2,4-thiadiazol-5-yl)-5,6,7,8-tetrahydroimidazo[1,5-a]pyrazin-1-yl]pyrrolidin-2-one] gave an IC50 in data set [1] of 15.4 nM. Besides, the bioavailability in data set [2] (po) turned out to be 65.6%. Besides, in data set [2] (po, gavage 3 mg/kg), the Cmax was found to be 348 ± 104 ng/mL, the area under the curve (AUC) worked out at 1860 ± 303 ng·h/mL and the half-life was 4.69 ± 1.18 h. In data set [2] (intravenous injection 1 mg/kg), the AUC amounted to 842 ± 66.3 ng·h/mL and the half-life is 0.94 ± 0.19 h.
With `Cc1nsc(-c2nc(-c3cc(F)ncc3O)c3n2CCN(C(=O)c2ccc(F)cc2)[C@@H]3C)n1` [Compound 165, (R)-(1-(2-fluoro-5-hydroxypyridin-4-yl)-8-methyl-3-(3-methyl-1,2,4-thiadiazol-5-yl)-5,6-dihydroimidazo[1,5-a]pyrazin-7 (8H)-yl)(4-fluorophenyl)methanone], in data set [3], the Papp A→B at 2.5 h, 2 μM came out at 19.2 ×10⁻⁶ cm/s; the Papp B→A at 2.5 h, 2 μM amounted to 12.2 ×10⁻⁶ cm/s; the efflux ratio at 2.5 h, 2 μM stood at 0.64.
